In general, AC50 refers to the midpoint of the concentration-response curve, whichever way the signal moves. By EC50 is commonly meant the concentration that produces a half-maximal response.

Structures are written as SMILES. Active and inactive are the calls of the source.

Assay [1] can be described thus: microbe, parasite or virus in culture. The class given is functional. The note with it: Mycobacterium tuberculosis.
The subject of a further assay is INS1. Put plainly: beta cell apoptosis inhibitors, cytokine rescue, dose response, luminescence, retest (AID 449756).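 Further: cell death triggered by IL-1 beta plus TNF-alpha plus IFN-gamma mixture; protective hits raise ATP signal compared with cytokine alone wells.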 Format: functional, cell-based. To be noted: Rattus norvegicus.
A short description of assay [2]: NIH-3T3 fibroblast cytotoxicity, dose response, cytotoxicity control, cell-based, fluorescence, Alamar Blue, secondary assay (AID 2327).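 Further: NIH-3T3 mouse fibroblasts cultured with fluconazole at 8 µg/mL.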 Format: functional. A general note: The colour change of resazurin is a common sign of viable cells or microbes.
Assay [3] can be described thus: C. albicans growth with fluconazole, confirmation, fluorescence, retest (AID 2467). Format: functional, cell-based.
A further assay concerns the target Cytochrome P450 2C19 (Homo sapiens, UniProt P33261). Kind of assay: Cytochrome panel assay with activity outcomes. Panel member name: p450-cyp2c19 Compounds with AC50 equal or less than 10 uM are considered active. The class given is functional. To be noted: read-out: AC50.
The next assay addresses Cytochrome P450 2D6 (Homo sapiens, UniProt P10635).
The nature of assay [4]: cytotoxicity toward NIH3T3 fibroblasts, dose response, counter-screen, cell-based, ATP luminescence, mouse fibroblasts (AID 2010).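 Further: cells exposed to compound for about 90 hours before reading.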 Format: functional. (The purpose of a counterscreen is to sort out artefacts and off-target activity.)
The nature of assay [5]: inhibitors of intracellular T. cruzi replication, confirmation, NIH3T3 host cells, beta-gal luminescence (AID 2044).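 Further: intracellular parasites grown in NIH/3T3 mouse fibroblasts as host cells; luminescent beta-galactosidase reporter signal from transgenic T. cruzi replicating inside host cells; inhibitors lower the luminescence signal.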 The class given is functional, cell-based.
A short description of assay [6]: HEp-2 cell cytotoxicity, dose response, cytotoxicity control for RSV inhibitor project, HTS (AID 2410). The class given is functional. To be noted: human respiratory syncytial virus.
Assay [7] addresses T1, Heat shock factor protein 1 (Mus musculus, UniProt P38532).
T1 sequence (P38532 whole entry): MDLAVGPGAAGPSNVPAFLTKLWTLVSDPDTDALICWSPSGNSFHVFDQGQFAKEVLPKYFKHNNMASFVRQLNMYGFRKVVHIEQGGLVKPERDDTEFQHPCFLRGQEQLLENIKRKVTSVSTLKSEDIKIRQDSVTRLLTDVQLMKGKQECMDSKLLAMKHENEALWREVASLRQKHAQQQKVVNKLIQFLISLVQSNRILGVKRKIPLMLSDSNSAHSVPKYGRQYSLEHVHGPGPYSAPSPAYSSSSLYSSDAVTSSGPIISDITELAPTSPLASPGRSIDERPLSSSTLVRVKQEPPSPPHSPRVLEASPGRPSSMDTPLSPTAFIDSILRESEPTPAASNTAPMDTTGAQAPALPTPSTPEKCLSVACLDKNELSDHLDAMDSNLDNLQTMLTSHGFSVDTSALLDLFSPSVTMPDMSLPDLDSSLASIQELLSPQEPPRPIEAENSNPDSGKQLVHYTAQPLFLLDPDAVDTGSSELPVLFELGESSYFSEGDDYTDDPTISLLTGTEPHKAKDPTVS
Put plainly: HSF1 potentiators in luciferase reporter cells, confirmation, cell-based, NIH3T3, luminescence, dose retest (AID 435004).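 Further: stress induced by proteasome inhibitor MG132 added 30 min after compound; luciferase reporter driven by HSF1 response element in NIH3T3 cells; actives raise luminescence as potentiators of the MG132 stress response.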 Format: functional. (In general: Reporter assays use an easily measured gene product as a stand-in for the process of interest.)

Assay [8] has as its target FAD-linked sulfhydryl oxidase ALR (Homo sapiens, UniProt P55789). Put plainly: inhibitors of human ALR sulfhydryl oxidase, dose response, biochemical, H2O2 detection, luminescence, cherry-pick (AID 493248).
Another assay concerns the target T2, Protein RecA (Mycobacterium tuberculosis, UniProt P9WHJ3).
T2 sequence (P9WHJ3 whole entry): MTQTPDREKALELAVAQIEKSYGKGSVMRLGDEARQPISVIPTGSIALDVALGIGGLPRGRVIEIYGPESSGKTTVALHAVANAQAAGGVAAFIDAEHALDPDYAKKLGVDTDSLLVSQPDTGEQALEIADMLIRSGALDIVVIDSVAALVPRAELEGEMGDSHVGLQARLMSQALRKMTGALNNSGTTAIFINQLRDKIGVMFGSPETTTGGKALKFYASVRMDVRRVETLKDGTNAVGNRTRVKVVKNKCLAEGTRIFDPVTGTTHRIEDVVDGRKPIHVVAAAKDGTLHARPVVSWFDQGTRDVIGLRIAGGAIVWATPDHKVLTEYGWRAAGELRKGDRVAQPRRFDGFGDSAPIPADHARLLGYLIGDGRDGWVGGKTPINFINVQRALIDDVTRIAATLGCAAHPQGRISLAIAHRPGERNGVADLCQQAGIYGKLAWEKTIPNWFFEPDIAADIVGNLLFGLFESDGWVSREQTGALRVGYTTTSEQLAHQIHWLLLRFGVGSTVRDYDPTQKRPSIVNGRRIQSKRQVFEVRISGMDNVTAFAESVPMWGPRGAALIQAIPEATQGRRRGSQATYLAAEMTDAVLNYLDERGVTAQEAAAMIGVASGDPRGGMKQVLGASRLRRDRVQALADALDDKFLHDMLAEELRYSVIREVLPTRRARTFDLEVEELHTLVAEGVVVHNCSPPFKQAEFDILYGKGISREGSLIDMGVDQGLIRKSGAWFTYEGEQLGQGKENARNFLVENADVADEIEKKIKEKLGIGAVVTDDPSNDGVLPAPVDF
Put plainly: Fluorescence Cell-Free Homogeneous Dose Retest to Identify Inhibitors of RecA-Intein Splicing Activity. [Related pubchem assays (depositor defined):AID2097, AID2223, AID489010, AID492950]. Format: functional.

Assay [9] deals with T3, Replicative DNA helicase DnaB (Mycobacterium tuberculosis, UniProt P9WMR3).
T3 sequence (P9WMR3 whole entry): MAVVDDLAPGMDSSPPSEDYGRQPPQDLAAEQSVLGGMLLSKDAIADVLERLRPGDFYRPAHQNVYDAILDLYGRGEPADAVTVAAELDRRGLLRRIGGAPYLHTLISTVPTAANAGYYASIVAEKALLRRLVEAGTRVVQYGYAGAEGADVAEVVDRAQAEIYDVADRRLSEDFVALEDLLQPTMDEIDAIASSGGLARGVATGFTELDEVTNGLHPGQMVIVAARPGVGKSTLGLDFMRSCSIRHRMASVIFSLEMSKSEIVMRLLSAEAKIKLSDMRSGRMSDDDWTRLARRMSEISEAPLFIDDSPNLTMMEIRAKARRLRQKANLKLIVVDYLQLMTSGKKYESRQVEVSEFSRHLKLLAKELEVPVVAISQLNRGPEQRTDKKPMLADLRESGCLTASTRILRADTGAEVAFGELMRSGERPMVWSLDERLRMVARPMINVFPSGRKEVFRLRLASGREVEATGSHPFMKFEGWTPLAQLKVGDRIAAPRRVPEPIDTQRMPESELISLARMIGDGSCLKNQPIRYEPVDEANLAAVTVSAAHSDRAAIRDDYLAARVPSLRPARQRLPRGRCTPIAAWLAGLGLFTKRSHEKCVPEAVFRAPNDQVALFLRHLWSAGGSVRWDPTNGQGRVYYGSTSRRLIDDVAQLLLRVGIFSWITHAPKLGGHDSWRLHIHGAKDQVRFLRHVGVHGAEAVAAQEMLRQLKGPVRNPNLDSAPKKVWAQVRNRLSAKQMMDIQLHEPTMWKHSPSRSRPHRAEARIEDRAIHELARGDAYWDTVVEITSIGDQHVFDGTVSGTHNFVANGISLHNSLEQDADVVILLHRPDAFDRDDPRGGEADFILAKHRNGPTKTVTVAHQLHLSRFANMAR
Put plainly: DnaB intein splicing inhibitors, dose response, biochemical, cell-free fluorescence (AID 449749). The class given is functional.

The nature of assay [10]: Luminescence Cell-Based Dose Retest to Confirm Inhibitors of Cancer Stem Cells. [Related pubchem assays (depositor defined):AID2717, AID2721]. Format: functional. To be noted: Homo sapiens.
Another assay concerns the target Paired box protein Pax-8 (Homo sapiens, UniProt Q06710). Kind of assay: inhibitors of PAX8-driven TPO luciferase reporter, dose response, RMG-I cells, cherry-pick (AID 687027).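 Further: luciferase reporter driven by Pax8 target thyroperoxidase promoter measured by SteadyGlo luminescence.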 The class given is functional, cell-based.
The target in another assay is Cytochrome P450 2C9 (Homo sapiens, UniProt P11712).
Cytochrome P450 2C9, sequence (P11712 whole entry): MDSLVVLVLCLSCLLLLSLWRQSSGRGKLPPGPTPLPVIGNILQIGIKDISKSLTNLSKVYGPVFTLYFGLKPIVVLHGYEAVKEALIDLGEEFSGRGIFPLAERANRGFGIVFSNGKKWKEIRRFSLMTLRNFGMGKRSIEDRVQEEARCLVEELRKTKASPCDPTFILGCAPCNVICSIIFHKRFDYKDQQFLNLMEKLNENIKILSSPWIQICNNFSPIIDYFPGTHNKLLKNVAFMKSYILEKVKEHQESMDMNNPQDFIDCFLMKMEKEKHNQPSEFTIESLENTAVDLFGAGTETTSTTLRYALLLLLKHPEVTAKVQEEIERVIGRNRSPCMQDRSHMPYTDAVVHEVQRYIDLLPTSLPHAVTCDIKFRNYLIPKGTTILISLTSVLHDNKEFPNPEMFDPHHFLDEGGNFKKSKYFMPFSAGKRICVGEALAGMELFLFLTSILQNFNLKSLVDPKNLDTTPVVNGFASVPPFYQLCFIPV

Cytochrome P450 2D6, sequence (P10635 whole entry): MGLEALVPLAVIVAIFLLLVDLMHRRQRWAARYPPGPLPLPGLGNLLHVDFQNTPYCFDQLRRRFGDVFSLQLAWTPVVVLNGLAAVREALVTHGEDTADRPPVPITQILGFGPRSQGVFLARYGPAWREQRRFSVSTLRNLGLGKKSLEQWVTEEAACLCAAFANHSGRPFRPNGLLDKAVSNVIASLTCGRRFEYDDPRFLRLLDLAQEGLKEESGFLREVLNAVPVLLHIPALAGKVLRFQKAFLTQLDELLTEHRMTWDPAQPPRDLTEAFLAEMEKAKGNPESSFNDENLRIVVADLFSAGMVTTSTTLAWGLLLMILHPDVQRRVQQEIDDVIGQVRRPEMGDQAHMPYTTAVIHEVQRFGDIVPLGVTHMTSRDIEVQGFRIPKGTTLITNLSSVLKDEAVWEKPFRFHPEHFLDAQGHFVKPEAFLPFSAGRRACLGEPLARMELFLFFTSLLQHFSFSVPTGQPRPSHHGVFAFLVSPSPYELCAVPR
FAD-linked sulfhydryl oxidase ALR, sequence (P55789 whole entry): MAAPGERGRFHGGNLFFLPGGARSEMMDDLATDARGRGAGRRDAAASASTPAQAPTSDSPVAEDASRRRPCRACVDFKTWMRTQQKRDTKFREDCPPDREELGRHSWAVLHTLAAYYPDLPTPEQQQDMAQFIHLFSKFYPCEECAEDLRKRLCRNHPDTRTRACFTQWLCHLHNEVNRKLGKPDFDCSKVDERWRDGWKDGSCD
Paired box protein Pax-8, sequence (Q06710 whole entry): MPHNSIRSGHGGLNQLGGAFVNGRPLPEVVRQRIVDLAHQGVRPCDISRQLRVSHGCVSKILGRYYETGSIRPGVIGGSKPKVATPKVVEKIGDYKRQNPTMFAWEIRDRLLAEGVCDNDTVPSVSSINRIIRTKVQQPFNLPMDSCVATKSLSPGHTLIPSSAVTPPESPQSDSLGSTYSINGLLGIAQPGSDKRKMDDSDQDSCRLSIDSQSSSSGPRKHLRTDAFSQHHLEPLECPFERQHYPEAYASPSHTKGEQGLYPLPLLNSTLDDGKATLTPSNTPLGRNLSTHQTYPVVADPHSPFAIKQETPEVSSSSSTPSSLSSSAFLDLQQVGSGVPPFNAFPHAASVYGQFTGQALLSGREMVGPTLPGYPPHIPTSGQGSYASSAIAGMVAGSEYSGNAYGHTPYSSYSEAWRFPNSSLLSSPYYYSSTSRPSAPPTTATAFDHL
Cytochrome P450 2C19, sequence (P33261 whole entry): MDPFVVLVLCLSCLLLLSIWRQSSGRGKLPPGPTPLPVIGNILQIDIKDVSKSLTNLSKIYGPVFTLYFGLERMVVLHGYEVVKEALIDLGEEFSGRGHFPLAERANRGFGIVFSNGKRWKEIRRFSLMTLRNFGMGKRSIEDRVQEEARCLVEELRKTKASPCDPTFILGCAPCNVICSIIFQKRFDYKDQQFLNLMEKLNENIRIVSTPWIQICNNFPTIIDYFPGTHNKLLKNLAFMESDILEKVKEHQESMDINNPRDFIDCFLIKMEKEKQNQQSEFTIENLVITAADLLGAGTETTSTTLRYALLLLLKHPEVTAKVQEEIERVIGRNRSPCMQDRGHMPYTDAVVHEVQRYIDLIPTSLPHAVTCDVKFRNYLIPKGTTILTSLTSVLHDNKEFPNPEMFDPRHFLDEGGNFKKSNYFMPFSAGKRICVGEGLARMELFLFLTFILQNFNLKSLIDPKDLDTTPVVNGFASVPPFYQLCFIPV

As to `O=C(NCCc1ccccc1)[C@@H]1CC=C[C@@H]2CCN(Cc3ccc(Cl)c(Cl)c3)C(=O)[C@@H]21`, the CC50 in assay [1] is 34.4 µM (active). In addition, the AC50 in the assay with INS1 was 6.35 µM (active).

For the molecule `CCc1ccccc1N=C(S)NNC(=O)c1ccccc1Cl`, the EC50 was > 150 µM (inactive) in assay [2] and 1.93 µM (active) in assay [3].

For `Cn1c(=O)cc(OCCCC(=O)Nc2cccnc2)c2ccccc21`, the AC50 at Cytochrome P450 2C19 was 20 µM (inconclusive); on Cytochrome P450 2D6 it was 10 µM (inconclusive). Also, the values for the EC50 in assay [2] and in [3] were > 160 µM (inactive) and > 38 µM (not active), respectively.

Take `COCCCNC(=O)/C(C#N)=C/c1c(N2CCN(c3cccc(Cl)c3)CC2)nc2c(C)cccn2c1=O`: the CC50 in assay [1] was > 40 µM (active).

For the molecule `COc1ccccc1N1CCN(CCCCOc2cccc3ccccc23)CC1`, the CC50 in assay [1] is > 40 µM (active).

As to `COc1ccccc1-c1cc(C(=O)NC2CCN(C)CC2)c2ccc(Cl)c(C)c2n1`, the EC50 in assay [4] is > 60 µM (not active); in [5] it was 1.4 µM (active). The CC50 in [1] was 7.01 µM (active).

Regarding `CC(=O)COc1cccc2ccc(/C=C/c3ccc(Br)s3)nc12`, the CC50 in assay [6] is 45.4 µM (active). In assay [7], the EC50 is 60.9 µM (active).

In the case of `O=C(NNc1cccc(Cl)c1)c1cccnc1Cl`, the EC50 is 24.8 µM (active) in assay [2] and > 38 µM (not active) in assay [3]. In [8], the AC50 is 4.14 µM (active).

Regarding `CN(CC(=O)Nc1ccc(F)c(F)c1F)c1cnccn1`, in assay [1], the CC50 is 23.5 µM (active).

For the molecule `C/C(=N/NC(=O)c1ccccc1O)c1ccc(N2C(=O)C3CCCCC3C2=O)cc1` (stereo not given), the EC50 in [2] was > 160 µM (inactive); in assay [3], > 38 µM (not active).

Consider `N#CC(C#N)=NNc1ccc(S(=O)(=O)N2CCCC2)cc1`, for which, at Protein RecA, the EC50 was 23.9 µM (active). For the same molecule, in [9], the AC50 is 6.9 µM (active).

As to `O=[N+]([O-])c1ccc(C2[C@H]3C(c4ccccc4)=NC4(CCCC4)N23)cc1` (stereo not given in full), the values for the EC50 in [2] and in [3] were > 150 µM (inactive) and > 38 µM (not active), respectively.

As to `CCC(O)CC(C(=O)NNc1ccccc1)C(=O)NNc1ccccc1` (stereo not given), the EC50 in assay [2] was 20.6 µM (active); in assay [3], > 38 µM (not active).

For the molecule `O=C1C(=CNCCN2CCNCC2)C(=O)N(C2CCCCC2)C(=O)N1C1CCCCC1`, the CC50 in assay [1] was 33.5 µM (active).

Regarding `COC(CN(C(=O)CCl)C(C(=O)NC1CCCCC1)c1ccc(C)cc1)OC` (stereo not given), the EC50 on Protein RecA was 7 µM (active). Further, in assay [9], the AC50 was > 380 µM (inactive).

With `CC(c1ccc(O)cc1)(c1ccc(O)cc1)c1ccc(CCBr)cc1`, the EC50 on Protein RecA is 9.45 µM (active). In addition, in assay [6], the CC50 was 17.4 µM (active). Moreover, the AC50 in assay [9] is 46.4 µM (active).

With `COCCNC(=O)NC12CC3CC(CC(C3)C1)C2`, the EC50 was > 160 µM (inconclusive) in [2] and > 38 µM (not active) in [3].

`CC(=O)n1c2c(c3ccccc31)OC(N)=C(C#N)C2c1cccc(Cl)c1Cl` (stereo not given): in assay [10], the AC50 is 1.57 µM (active). The EC50 in assay [7] was 42.4 µM (active).

`S=C(NC1CCCCC1)NC1CC2C=CC1C2` (stereo not given): the EC50 in [7] was > 260 µM (inactive).

Take `Cc1ccc(S(=O)(=O)N(C)C[C@H]2Oc3ccc(NC(=O)Nc4ccc(C(F)(F)F)cc4)cc3CC(=O)N([C@@H](C)CO)C[C@H]2C)cc1`: on Paired box protein Pax-8, the AC50 was 9.45 µM (active).

`CCCCNC(=O)/C(=C\c1ccc([N+](=O)[O-])o1)NC(=O)c1ccccc1`: the EC50 in [4] is > 60 µM (inconclusive); in assay [2], > 150 µM (inactive); in assay [5], 0.863 µM (active); in assay [3] it was 0.265 µM (active).

With `Cc1cc2c(cc1C)-c1nnnn1C(C)(C)C2`, in [7], the EC50 is > 260 µM (inactive).

As to `CCOC(=O)c1cnc2ccc(C)cc2c1Sc1ccccc1`, the EC50 on Protein RecA is 5.87 µM (active). Also, the AC50 in assay [9] was 5.63 µM (active).

On to `COc1ccc(-c2cc(-c3c(O)c(OC)c4occc4c3OC)[nH]n2)cc1OC`, for which the EC50 was > 160 µM (inactive) in assay [2] and > 38 µM (not active) in assay [3]. In addition, the AC50 on Cytochrome P450 2D6 was 25.1 µM (inconclusive); at Cytochrome P450 2C9 it was 39.8 µM (inconclusive).

These data come from ChEMBL document CHEMBL1201862, “PubChem BioAssay data set” (2004).
